Patent US12162959B2, “Cyclic peptide for treating cancer” (Saint Leo University, priority 2018, dated 2024)
Where a SMILES comes first, the peptide text is derived from it.

Columns and labels:
[1] = tested on: SVG p12 immortalized normal astroglia cells
Method: (§1) Cells were incubated post-transfection for a duration of two doubling periods and assessed for viability by using a cell proliferetion CCK-8 assay.
(§2) IC50 values were calculated form obtained equations that describe cell viability as a function of peptide concentration.

[2] = tested on: NTERA-2 cells
Method: Pierce Protein Transfection reagent (Thermo Scientific, 89850) was used to deliver peptide to the cultured cells. Transfected cells were allowed to go through two division cycles (48 hours) port-transfection, after which amounts of alive cells were determined by using a colorimetric CCK-8 assay (Dojindo Molecular Technologies, Inc.).
Human embryonal testicular carcinoma cells (NTERA-2 from ATCC #CRL-1973) were transfected with 1-10 μM Peptide 7N for 4.0 hours, incubated in a complete media for 48 hours, and assessed for viability by using a CCK-8 colorimetric assay.
as §2

[3] = tested on: BT-549 cells
Method: (§3) Breast adenocarcinoma (MDA-MB468), ductal carcinoma (BT-549), and primary mammary epithelial (HMEC) cells were transfected with 1.25 μM, 2.5 μM, 5.0 μM, or 20.0 μM of peptide 7N by using Pierce Protein Transfection reagent. Cells were incubated post-transfection for a duration of two doubling periods and assessed for viability by using a cell proliferetion CCK-8 assay.
as §2

[4] = tested on: HLF-a cells
Method: as §1, §2

[5] = tested on: Hep-G2 cells
Method: (§4) Hepatocellular carcinoma (Hep3B and Hep-G2) and immortalized normal liver (THLE-3) cells were transfected with 1.25 μM, 2.5 μM, 5.0 μM, or 20.0 μM of peptide 7N by using Pierce Protein Transfection reagent. Cells were incubated post-transfection for a duration of two doubling periods and assessed for viability by using a cell proliferetion CCK-8 assay.
as §2

[6] = tested on: HMEC primary mammary epithelial cells
Method: as §3, §2

[7] = tested on: M059K cells
Method: as §1, §2

[8] = tested on: M059J cells
Method: as §1, §2

[9] = tested on: Hep3B cells
Method: as §4, §2

[10] = tested on: MRC-9 normal embryonic lung fibroblasts
Method: as §1, §2

[11] = tested on: H596 cells
Method: as §1, §2

[12] = tested on: Hs 766T cells
Method: as §1, §2

[13] = tested on: hTERT-HPNE immortalized normal pancreatic cells
Method: as §1, §2

[14] = tested on: Human recombinant CMG helicase; test: In vitro CMG helicase activity assay with Y-shaped oligonucleotide substrate; type: biochemical; conditions: about 5 nM CMG helicase, 1.0, 2.0 or 5.0 nM peptide, 0.5 mM ATP, 37° C. 45 minutes; FIG. 1A/1B
Method: Human recombinant CMG helicase was co-incubated with Peptide 7N (amide cyclic of SEQ ID NO: 1) peptide in the 1-5 nM range and subjected to an in vitro activity assay with Y-shaped oligonucleotides as a substrate.
About 5 nM of CMG helicase was pre-incubated with 1.0, 2.0, or 5.0 nM of Peptide 7N peptide for 20 minutes on ice. In vitro helicase reactions containing partially annealed Y-shaped oligonucleotides as substrate were fired by the addition of 0.5 mM ATP as described previously (Kang Y H et al. PNAS, 2012, 109(16), p. 6042-6047). Reactions were incubated at 37° C. for 45 minutes, stopped with 4 μL of 6× stop solution, and separated by 10% PAGE. To visualize DNA bands, the gel was stained using SYBR Gold nucleic acid stain. Densities of single-stranded DNA bands were quantified by using Image Lab software, and normalized against control.

[15] = tested on: SW620 cells
Method: (§5) Colorectal adenocarcinoma cells (SW480 and SW620) were transfected with 1.25 μM, 2.5 μM, 5.0 μM, or 20.0 μM of peptide 7N by using Pierce Protein Transfection reagent. Cells were incubated post-transfection for a duration of two doubling periods and assessed for viability by using a cell proliferetion CCK-8 assay.
as §2

[16] = tested on: SW480 cells
Method: as §5, §2

[17] = tested on: THLE-3 immortalized normal liver cells
Method: as §4, §2

[18] = tested on: PANC-1 cells
Method: as §1, §2

[19] = tested on: MDA-MB468 cells
Method: as §3, §2

CSCC[C@@H]1NC(=O)[C@H](CCC(N)=O)NC(=O)[C@H](CC(C)C)NC(=O)[C@H](C(C)C)NC(=O)[C@H](CCC(=O)O)NC(=O)CNC(=O)[C@H](CCCCN)NC(=O)[C@H](C(C)C)NC(=O)[C@H](CC(C)C)NC(=O)[C@H](CC(=O)O)NC(=O)[C@H](CC(=O)O)NC(=O)[C@H](CCC(=O)O)NC1=O [Peptide 7N, Lys-Gly-Glu-Val-Leu-Gln-Met-Glu-Asp-Asp-Leu-Val] (cyclo(KGEVLQMEDDLV))
IC50 [1]: 271 µM | Effect on immortalized normal astroglia cells (result in words) ([1]; SVG p12, 1.25-20.0 μM peptide, CCK-8, FIG. 6): sparing | IC50 ([2]; 48 h): 7 µM | Proliferation/viability of NTERA-2 cells ([2]; transfected with 1-10 μM peptide for 4.0 hours, 48 hours in complete media, CCK-8, FIG. 2): effectively inhibited proliferation | IC50 [3]: 18.3 µM | Proliferation of breast cancer cells (result in words) ([3]; BT-549, 1.25-20.0 μM peptide, CCK-8, FIG. 7): decreases proliferation | IC50 [4]: 14.4 µM | Proliferation of lung carcinoma cells (result in words) ([4]; HLF-a, 1.25-20.0 μM peptide, CCK-8, FIG. 3): decreased proliferation | IC50 [5]: 16.7 µM | Proliferation of liver carcinoma cells (result in words) ([5]; Hep-G2, 1.25-20.0 μM peptide, CCK-8, FIG. 4): decreased proliferation | IC50 [6]: 134 µM | Effect on normal mammary epithelial cells (result in words) ([6]; HMEC, 1.25-20.0 μM peptide, CCK-8, FIG. 7): sparing | IC50 [7]: 16.1 µM | Proliferation of brain glioma cells (result in words) ([7]; M059K, 1.25-20.0 μM peptide, CCK-8, FIG. 6): decreased proliferation | IC50 [8]: 15.4 µM | Proliferation of brain glioma cells (result in words) ([8]; M059J, 1.25-20.0 μM peptide, CCK-8, FIG. 6): decreased proliferation | IC50 [9]: 14.1 µM | Proliferation of liver carcinoma cells (result in words) ([9]; Hep3B, 1.25-20.0 μM peptide, CCK-8, FIG. 4): decreased proliferation | IC50 [10]: 162 µM | Effect on normal lung fibroblasts (result in words) ([10]; MRC-9, 1.25-20.0 μM peptide, CCK-8, FIG. 3): sparing | IC50 [11]: 12.2 µM | Proliferation of lung carcinoma cells (result in words) ([11]; H596, 1.25-20.0 μM peptide, CCK-8, FIG. 3): decreased proliferation | IC50 [12]: 18.1 µM | Proliferation of pancreatic carcinoma cells (result in words) ([12]; Hs 766T, 1.25-20.0 μM peptide, CCK-8, FIG. 5): decreased proliferation | IC50 [13]: 1050 µM | Effect on immortalized normal pancreatic cells (result in words) ([13]; hTERT-HPNE, 1.25-20.0 μM peptide, CCK-8, FIG. 5): sparing | Inhibition of CMG helicase (density of single-stranded DNA bands normalized against control) [14]: inhibited CMG helicase in a robust dose-dependent manner | IC50 [15]: 22 µM | Proliferation of colorectal cancer cells (result in words) ([15]; SW620, 1.25-20.0 μM peptide, CCK-8, FIG. 8): decreased proliferation | IC50 [16]: 21.8 µM | Proliferation of colorectal cancer cells (result in words) ([16]; SW480, 1.25-20.0 μM peptide, CCK-8, FIG. 8): decreased proliferation | IC50 [17]: 722 µM | Effect on immortalized normal liver cells (result in words) ([17]; THLE-3, 1.25-20.0 μM peptide, CCK-8, FIG. 4): sparing | IC50 [18]: 24.6 µM | Proliferation of pancreatic carcinoma cells (result in words) ([18]; PANC-1, 1.25-20.0 μM peptide, CCK-8, FIG. 5): decreased proliferation | IC50 [19]: 17.1 µM | Proliferation of breast cancer cells (result in words) ([19]; MDA-MB468, 1.25-20.0 μM peptide, CCK-8, FIG. 7): decreases proliferation
